The values below come from patent US20170121344A1 (Siga Technologies, Inc., priority 2009, published 2017).

Where two headings read alike, the source gives them in different places.

Data set [1] has as its system dengue. Conditions: mouse model; cited from earlier work.
Data set [2] relates to dengue. As to conditions: cited from earlier work.
For data set [3], the system named is Dengue-2 (Strain New Guinea C). Description: Viral yield assay against Dengue-2 in Vero cells. It counts as cell-based, Dengue virus. As to conditions: Dengue virus. A digest of the protocol: (§1)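 Vero cells were infected with dengue-2 at MOI 0.1, treated with compound (DMSO control), and kept at 37° C. They were harvested 48 hours post infection and yield was titered on Vero cells. EC50 came from the yield curve, and the other serotypes were run in a similar way.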

Data set [4] has as its system four serotypes of dengue. Description: Yield assays against each of the four serotypes of dengue. The class given is cell-based, Dengue virus. As to conditions: all four serotypes. On the procedure: Initially, the chemical structures of the hit compounds were examined for chemical tractability. […] Hits that passed this medicinal chemistry filter were evaluated for their potency. Compound potency was determined by evaluating inhibitory activity across a broad range of concentrations. Nonlinear regression was used to generate best-fit inhibition curves and to calculate the 50% effective concentration (EC50). The selectivity or specificity of a given compound is typically expressed as a ratio of its cytotoxicity to its biological effect. A cell proliferation assay is used to calculate a 50% cytotoxicity concentration (CC50); the ratio of this value to the EC50 is referred to as the therapeutic index (T.I.=CC50/EC50). Two types of assays have been used to determine cytotoxicity, both of which are standard methods for quantitating the reductase activity produced in metabolically active cells (22). […] Verification that these compounds act against each of the four serotypes of dengue was done with yield assays carried out at several drug concentrations, and the titer determined for each.
Compounds that were active in the primary screen were tested for activity in viral yield assays. […] The EC50 was calculated through ExcelFit. Activities against other serotypes of dengue virus were determined in a similar way.

Data set [5] deals with DENV-1. Description: Viral yield assay against DENV-1 in Vero cells. It counts as cell-based. Conditions: Dengue virus. A digest of the protocol:
as §1

Data set [6] relates to DENV-3. Description: Viral yield assay against DENV-3 in Vero cells. The class given is cell-based. As to conditions: Dengue virus. A digest of the protocol:
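Progeny virus from compound-treated Vero monolayers infected at an MOI of 0.1 is collected after 48 h at 37° C and titered on Vero cells. DMSO serves as control.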

Data set [7] deals with DENV-4. Briefly: Viral yield assay against DENV-4 in Vero cells. The class given is cell-based. Conditions: Dengue virus. A digest of the protocol:
as §1

Where [8] appears, read: DENV2, viral yield assay, Vero cells, MOI 0.1, 48 hours post infection, read-out: Activity (EC50 in μM) DENV-2.
[9] abbreviates: DENV2, Vero cells, read-out: Activity (EC50 in μM) DENV-2.

Consider `NC(=O)c1ncn([C@@H]2O[C@H](CO)[C@@H](O)[C@H]2O)n1` [ribavirin, Ribavirin], for which the Protection against dengue result in data set [1] and in data set [2] (rhesus monkey model) was “did not show protection” each time. The Adverse effects induced result in data set [2] (animal model, literature) was “induced anemia and thrombocytosis”.
As a reminder, the EC50 is the midpoint of the concentration-response curve. Take `Nc1c(C(=O)Nc2nnc(-c3ccccc3)s2)sc2nc3c(cc12)CCCCC3` [Compound 1, 3-Amino-6,7,8,9-tetrahydro-5H-1-thia-10-aza-cyclohepta[f]indene-2-carboxylic acid (5-phenyl-[1,3,4]thiadiazol-2-yl)-amide]: the EC50 in data set [3] (Vero cells, MOI 0.1, harvested 48 hours post infection, read-out: Activity (EC50 class) against Dengue-2 Virus in Vero cells) is less than 5 µM. In addition, the “Activity against serotypes of dengue” value in data set [4] is “activity against all four serotypes of dengue”.
For the compound `COc1cc(NC(=O)c2sc3nc(-c4cccs4)ccc3c2N)cc(OC)c1OC` [Compound 473, 3-amino-6-(2-thienyl)-N-(3,4,5-trimethoxyphenyl)thieno[2,3-b]pyridine-2-carboxamide], the EC50 is less than 5 µM in data set [3] (DENV2, Vero, 48 h, read-out: Activity (EC50 in μM) DENV-2); less than 5 µM in data set [5] (DENV1, viral yield assay); less than 5 µM in data set [6] (DENV3, viral yield assay); less than 5 µM in data set [7] (DENV4, viral yield assay).
Regarding `Cc1ccc2c(N)c(C(=O)Nc3nnc(-c4ccccc4)s3)sc2n1` [Compound 284, 3-amino-6-methyl-N-(5-phenyl-1,3,4-thiadiazol-2-yl)thieno[2,3-b]pyridine-2-carboxamide], the EC50 was less than 5 µM in data set [3] (setting [8]); less than 5 µM in data set [5] (DENV1, viral yield assay); 5 to 25 µM in data set [6] (DENV3, viral yield assay); more than 25 µM in data set [7] (DENV4, viral yield assay).
For the compound `COc1ccc(-c2ccc3c(N)c(C(=O)Nc4ccc(C)c(Cl)c4)sc3n2)cc1OC` [Compound 574, 3-amino-N-(3-chloro-4-mehtyl-phenyl)-6-(3,4-dimethoxyphenyl)thieno[2,3-b] pyridine-2-carboxamide], the EC50 is less than 5 µM in data set [3] (setting [8]); less than 5 µM in data set [5] (DENV1, viral yield assay); less than 5 µM in data set [6] (DENV3, viral yield assay); less than 5 µM in data set [7] (DENV4, viral yield assay).
For `O=C1CCC(=O)N(c2cccc(C(F)(F)F)c2)C(=O)c2sc3nc(-c4cccs4)ccc3c2N1` [Compound 306, 2-(thiophen-2-yl)-10-(3-(trifluoromethyl)phenyl)-7,8-dihydro-5H-pyrido[3′,2′:4,5]thieno[3,2-b][1,5]diazonine-6,9,11(10H)-trione], the EC50 in data set [3] (setting [8]) is less than 5 µM; in data set [5] (DENV1, viral yield assay), less than 5 µM; in data set [6] (DENV3, viral yield assay), less than 5 µM; in data set [7] (DENV4, viral yield assay), less than 5 µM.
For `COc1ccc(-c2ccc3c(N)c(C(=O)Nc4ccc(C(F)(F)F)cc4)sc3n2)cc1` [Compound 492, 3-amino-6-(4-methoxyphenyl)-N-[4-(trifluoromethyl)phenyl]thieno[2,3-b] pyridine-2-carboxamide], the EC50 in data set [3] (setting [8]) is less than 5 µM; in data set [5] (DENV1, viral yield assay) it was less than 5 µM; in data set [6] (DENV3, viral yield assay), less than 5 µM; in data set [7] (DENV4, viral yield assay) it was less than 5 µM.
Turning to `CC(=O)Nc1c(C(=O)Nc2nnc(-c3ccccc3)s2)sc2nc3c(cc12)CCCCC3` [Compound 358, 3-acetamido-N-(5-phenyl-1,3,4-thiadiazol-2-yl)-6,7,8,9-tetrahydro-5H-cyclohepta[b]thieno[3,2-e]pyridine-2-carboxamide], the concentration giving a half-maximal response (EC50) in data set [3] (setting [9]) was less than 5 µM; in data set [5] (DENV1) it was less than 5 µM; in data set [6] (DENV3), 5 to 25 µM; in data set [7] (DENV4), more than 25 µM.
Regarding `CCOc1ccc(NC(=O)c2sc3nc(-c4ccc(OC)c(OC)c4)ccc3c2N)cc1` [Compound 635, 3-amino-6-(3,4-dimethoxyphenyl)-N-(4-ethoxyphenyl)thieno[2,3-b]pyridine-2-carboxamide], the EC50 in data set [3] (setting [8]) was less than 5 µM; in data set [5] (DENV1, viral yield assay) it was less than 5 µM; in data set [6] (DENV3, viral yield assay) it was more than 25 µM; in data set [7] (DENV4, viral yield assay), less than 5 µM.
Take `COc1cccc(-c2ccc3c(N)c(C(=O)Nc4ccc(Br)cc4)sc3n2)c1` [Compound 446, 3-amino-N-(4-bromophenyl)-6-(3-methoxyphenyl)thieno[2,3-b]pyridine-2-carboxamide]: the EC50 in data set [3] (setting [8]) is less than 5 µM; in data set [5] (DENV1, viral yield assay), less than 5 µM; in data set [6] (DENV3, viral yield assay), less than 5 µM; in data set [7] (DENV4, viral yield assay) it was less than 5 µM.
On to `Nc1c(C(=O)Nc2ccc(C(F)(F)F)cc2)sc2nc(-c3cccs3)ccc12` [Compound 459, 3-amino-6-(2-thienyl)-N-[4-(trifluoromethyl)phenyl]thieno[2,3-b] pyridine-2-carboxamide], for which the EC50 was less than 5 µM in data set [3] (setting [8]); less than 5 µM in data set [5] (DENV1, viral yield assay); less than 5 µM in data set [6] (DENV3, viral yield assay); less than 5 µM in data set [7] (DENV4, viral yield assay).
Take `NCCNc1c(C(=O)Nc2cccc(C(F)(F)F)c2)sc2nc(-c3cccs3)ccc12` [Compound 304, 3-(2-aminoethylamino)-6-(2-thienyl)-N-[3-(trifluoromethyl)phenyl]thieno[2,3-b]pyridine-2-carboxamide]: the EC50 in data set [3] (setting [9]), in data set [5] (DENV1), in data set [6] (DENV3) and in data set [7] (DENV4) was less than 5 µM each time.
In the case of `COc1cccc(-c2ccc3c(N)c(C(=O)Nc4ccc(C(F)(F)F)cc4)sc3n2)c1` [Compound 448, 3-amino-6-(3-methoxyphenyl)-N-[4-(trifluoromethyl)phenyl]thieno[2,3-b] pyridine-2-carboxamide], the EC50 in data set [3] (setting [8]) was less than 5 µM; in data set [5] (DENV1, viral yield assay), less than 5 µM; in data set [6] (DENV3, viral yield assay), less than 5 µM; in data set [7] (DENV4, viral yield assay), less than 5 µM.
On to `Cc1ccc(NC(=O)c2sc3nc(-c4ccc5c(c4)OCO5)ccc3c2N)c(C)c1` [Compound 596, 3-amino-6-(1,3-benzodioxol-5-yl)-N-(2,4-dimethyphenyl)thieno[2,3-b]pyridine-2-carboxamide], for which the EC50 in data set [3] (setting [8]) was less than 5 µM; in data set [5] (DENV1, viral yield assay), less than 5 µM; in data set [6] (DENV3, viral yield assay), less than 5 µM; in data set [7] (DENV4, viral yield assay) it was less than 5 µM.
On to `Cc1ccc(NC(=O)c2sc3nc(-c4cccs4)ccc3c2N)cc1C` [Compound 414, 3-amino-N-(3,4-dimethylphenyl)-6-(2-thienyl)thieno[2,3-b]pyridine-2-carboxamide], for which the EC50 in data set [3] (setting [8]) was less than 5 µM; in data set [5] (DENV1, viral yield assay) it was less than 5 µM; in data set [6] (DENV3, viral yield assay) it was less than 5 µM; in data set [7] (DENV4, viral yield assay), less than 5 µM.
